Data taken from patent US20260193238A1, “PHARMACEUTICAL COMPOUNDS AS PARP7 AND/OR PARP1 INHIBITORS” (Duke Street Bio Limited, priority 2022, published 2026).

How the values were obtained:
[1] = system: PARP1 over PARP2; settings: PARP1 inhibitor and trapper; cited from earlier work
[2] = molecular target: PARP1 (Homo sapiens, UniProt P09874); assay: PARP1 biochemical DELFIA assay (auto-PARylation)
Chain of PARP1 (P09874 whole entry): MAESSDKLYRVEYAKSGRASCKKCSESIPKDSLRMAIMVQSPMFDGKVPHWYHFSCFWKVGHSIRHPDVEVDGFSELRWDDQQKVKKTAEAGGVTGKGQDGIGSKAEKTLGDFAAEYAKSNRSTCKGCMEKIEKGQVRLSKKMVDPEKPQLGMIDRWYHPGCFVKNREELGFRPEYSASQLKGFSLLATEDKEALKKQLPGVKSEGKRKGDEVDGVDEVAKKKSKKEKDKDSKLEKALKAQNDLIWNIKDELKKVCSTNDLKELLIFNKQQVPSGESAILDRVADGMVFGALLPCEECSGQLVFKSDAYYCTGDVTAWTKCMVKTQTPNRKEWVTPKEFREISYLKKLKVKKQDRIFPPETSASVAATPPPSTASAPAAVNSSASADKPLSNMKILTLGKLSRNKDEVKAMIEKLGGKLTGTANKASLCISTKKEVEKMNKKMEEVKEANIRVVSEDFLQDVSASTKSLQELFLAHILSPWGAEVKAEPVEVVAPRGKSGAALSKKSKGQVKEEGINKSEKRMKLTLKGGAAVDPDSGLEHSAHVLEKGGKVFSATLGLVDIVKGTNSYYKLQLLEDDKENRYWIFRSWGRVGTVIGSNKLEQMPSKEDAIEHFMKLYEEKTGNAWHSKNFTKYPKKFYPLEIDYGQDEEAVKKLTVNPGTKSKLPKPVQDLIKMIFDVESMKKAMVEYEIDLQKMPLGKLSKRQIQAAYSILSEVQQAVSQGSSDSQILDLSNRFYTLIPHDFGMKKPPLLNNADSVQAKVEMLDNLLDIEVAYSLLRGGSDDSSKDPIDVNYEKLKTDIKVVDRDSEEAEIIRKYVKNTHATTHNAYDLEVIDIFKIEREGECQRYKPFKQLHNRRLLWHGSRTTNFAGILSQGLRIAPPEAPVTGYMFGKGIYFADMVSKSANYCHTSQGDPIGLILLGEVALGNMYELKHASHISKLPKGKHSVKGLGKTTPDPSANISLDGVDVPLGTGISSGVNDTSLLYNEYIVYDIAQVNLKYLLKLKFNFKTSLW

Row | IC50 ([2]; Table 1A) [nM] | Compound | further results
1 | – | CCc1cc2ncc(CN3CCN(c4ccc(C(=O)NC)nc4)CC3)cc2[nH]c1=O [AZD5305] | selectivity over PARP2 [1]: 500 fold
2 | – | 6-(1-(3-oxo-3-(4-(5-(trifluoromethyl)pyrimidin-2-yl)piperazin-1-yl)propyl)azetidin-2-yl)-4-(trifluoromethyl)pyridazin-3(2H)-one [Compound 5rac] | IC50 ([2]; Table 1): 10 to 100 nM
3 | – | O=C(CCN1CCC(c2cc(C(F)(F)F)c(=O)[nH]n2)C1)N1CCN(c2ncc(C(F)(F)F)cn2)CC1 (single isomer, unassigned) [Compound 7a] | IC50 ([2]; Table 1): 100 to 1000 nM
4 | 10 to 100 | CC1(C)C[C@H](c2cc(C(F)(F)F)c(=O)[nH]n2)N(CC(=O)N2CCN(c3ncc(C(F)(F)F)cn3)CC2)C1 [Compound 94a] | –
5 | 1000 to 10000 | O=C(CN1CCCC1c1cc(C(F)(F)F)c(=O)[nH]n1)N1CC2(C1)CN(c1ncc(C(F)(F)F)cn1)C2 (single isomer, unassigned) [Compound 106b] | –
6 | 1000 to 10000 | CNC(=O)c1ccc(N2CCN(C(=O)CN3CCCC3c3cc(C(F)(F)F)c(=O)[nH]n3)CC2)nc1 (single isomer, unassigned) [Compound 55a] | –
7 | 1000 to 10000 | Cn1c(N2CCN(C(=O)CN3CCCC3c3cc(C(F)(F)F)c(=O)[nH]n3)CC2)nc2ccccc21 (single isomer, unassigned) [Compound 97b] | –
8 | 1000 to 10000 | N#Cc1cnc(N2CCN(C(=O)CN3CCCC3c3cc(C(F)(F)F)c(=O)[nH]n3)CC2)c(C(F)(F)F)c1 (single isomer, unassigned) [Compound 124b] | –
9 | 1000 to 10000 | CNC(=O)c1ccc(N2CCN(C(=O)CN3CCOCC3c3cc(C(F)(F)F)c(=O)[nH]n3)CC2)cn1 (single isomer, unassigned) [Compound 90b] | –
10 | – | O=C(CN1CCC(c2cc(C(F)(F)F)c(=O)[nH]n2)C1)N1CCN(c2ncc(C(F)(F)F)cn2)CC1 (racemic) [Compound 19rac] | IC50 ([2]; Table 1): 100 to 1000 nM
11 | 1000 to 10000 | O=C(CN1CCCC1c1cc(C(F)(F)F)c(=O)[nH]n1)N1CCN(c2nc3ccc(Cl)cc3o2)CC1 (single isomer, unassigned) [Compound 85b] | –
12 | 1000 to 10000 | COC1CC(c2cc(C(F)(F)F)c(=O)[nH]n2)N(CC(=O)N2CCN(c3ncc(C(F)(F)F)cn3)CC2)C1 (single isomer, unassigned) [Compound 138cis2, 6-(4-methoxy-1-(2-oxo-2-(4-(5-(trifluoromethyl)pyrimidin-2-yl)piperazin-1-yl)ethyl)pyrrolidin-2-yl)-4-(trifluoromethyl)pyridazin-3(2H)-one] | –
13 | 1000 to 10000 | O=C(CN1CCCC1c1cc(C(F)(F)F)c(=O)[nH]n1)N1CCN(c2nc3cc(Cl)ccc3o2)CC1 (single isomer, unassigned) [Compound 99b] | –
14 | ≤ 10 | O=C(CN1CCCC1c1cc(C(F)(F)F)c(=O)[nH]n1)N1CCN(c2nc3cc(Cl)ccc3o2)CC1 (single isomer, unassigned) [Compound 99a] | –
15 | 1000 to 10000 | O=C(CN1CCCC1c1cc(C(F)(F)F)c(=O)[nH]n1)N1CCN(c2ccc(C(F)(F)F)cn2)CC1 (single isomer, unassigned) [Compound 42a] | –
16 | – | O=C(CCN1CCCC(c2cc(C(F)(F)F)c(=O)[nH]n2)C1)N1CCN(c2ccc(F)cn2)CC1 (single isomer, unassigned) [Compound 8b] | IC50 ([2]; Table 1): 100 to 1000 nM
17 | ≤ 10 | O=C(CN1CCCC1c1cc(C(F)(F)F)c(=O)[nH]n1)N1CCN(c2ncc(C(F)(F)F)s2)CC1 (racemic) [Compound 52rac] | –

Row | IC50 ([2]; Table 1A) [nM] | Compound | further results
18 | 1000 to 10000 | O=C(CN1CCCC1c1cc(C(F)(F)F)c(=O)[nH]n1)N1CCN(c2nc3cc(F)ccc3o2)CC1 (single isomer, unassigned) [Compound 150b] | –
19 | > 10000 | Cn1c(N2CCN(C(=O)CN3CCCC3c3cc(C(F)(F)F)c(=O)[nH]n3)CC2)nc2ccc(F)cc21 (single isomer, unassigned) [Compound 119b] | –
20 | – | O=C(CCN1CCCC(c2cc(C(F)(F)F)c(=O)[nH]n2)C1)N1CCN(c2ncc(C(F)(F)F)s2)CC1 (single isomer, unassigned) [Compound 27a] | IC50 ([2]; Table 1): 10 to 100 nM
21 | 10 to 100 | O=C(CN1CCC(c2n[nH]c(=O)c3ccccc23)CC1)N1CCN(c2ncc(C(F)(F)F)cn2)CC1 [Compound 51] | –
22 | 100 to 1000 | O=C(CN1CCOCC1c1cc(C(F)(F)F)c(=O)[nH]n1)N1CCN(c2ncc(C(F)(F)F)cn2)CC1 (single isomer, unassigned) [Compound 88b] | –
23 | 1000 to 10000 | CC(C)(C)c1cnc(N2CCN(C(=O)CN3CCCC3c3cc(C(F)(F)F)c(=O)[nH]n3)CC2)nc1 (single isomer, unassigned) [Compound 82b] | –
24 | 10 to 100 | O=C(CN1CCCC1c1cc(C(F)(F)F)c(=O)[nH]n1)N1CCN(c2ccc(OC(F)(F)F)cn2)CC1 (single isomer, unassigned) [Compound 81b] | –
25 | > 10000 | O=C(CN1CCCC1c1cc(C(F)(F)F)c(=O)[nH]n1)N1CCN(c2ncc(F)cc2F)CC1 (single isomer, unassigned) [Compound 83b] | –
26 | 1000 to 10000 | CNC(=O)c1ccc(N2CCN(C(=O)CCN3CCCC3c3c[nH]c(=O)c(C(F)(F)F)c3)CC2)cn1 (single isomer, unassigned) [Compound 73b] | –
27 | – | CCc1cc(C2CCCN(CCC(=O)N3CCN(c4ncc(C(F)(F)F)cn4)CC3)C2)n[nH]c1=O (single isomer, unassigned) [Compound 6b, 4-ethyl-6-(1-(3-oxo-3-(4-(5-(trifluoromethyl)pyrimidin-2-yl)piperazin-1-yl)propyl)piperidin-3-yl)pyridazin-3(2H)-one] | IC50 ([2]; Table 1): 100 to 1000 nM
28 | 100 to 1000 | Cn1c(N2CCN(C(=O)CN3CCCC3c3cc(C(F)(F)F)c(=O)[nH]n3)CC2)nc2ccccc21 (single isomer, unassigned) [Compound 97a] | –
29 | 10 to 100 | O=C(CN1CCCC1c1cc(C(F)(F)F)c(=O)[nH]n1)N1CCN(c2ccc(C(F)(F)F)cn2)CC1 (single isomer, unassigned) [Compound 42b] | –
30 | 10 to 100 | O=C(CN1CCCC1c1c[nH]c(=O)c(C(F)(F)F)c1)N1CCN(c2ncc(C(F)(F)F)cn2)CC1 (single isomer, unassigned) [Compound 60a, 5-(1-(2-oxo-2-(4-(5-(trifluoromethyl)pyrimidin-2-yl)piperazin-1-yl)ethyl)pyrrolidin-2-yl)-3-(trifluoromethyl)pyridin-2(1H)-one] | –
31 | – | O=C(CCN1CCCC(c2cc(C(F)(F)F)c(=O)[nH]n2)C1)N1CCN(c2ncc(OC(F)(F)F)cn2)CC1 (single isomer, unassigned) [Compound 13a] | IC50 ([2]; Table 1): 100 to 1000 nM
32 | 1000 to 10000 | O=C(CN1CCCC1c1cc(C(F)(F)F)c(=O)[nH]n1)N1CCN(c2ccc(C(F)F)cn2)CC1 (single isomer, unassigned) [Compound 126b] | –
33 | 1000 to 10000 | CNC(=O)c1ccc(N2CCN(C(=O)CN3CCCC3c3cc(C(F)(F)F)c(=O)[nH]n3)CC2)cn1 (single isomer, unassigned) [Compound 37b] | –
34 | – | CNC(=O)c1ccc(N2CCN(C(=O)CCN3CCCC(c4cc(C(F)(F)F)c(=O)[nH]n4)C3)CC2)nc1 (single isomer, unassigned) [Compound 28b] | IC50 ([2]; Table 1): 100 to 1000 nM
